Test results reported in patent US20140193827A1 (TEVA PHARMACEUTICAL INDUSTRIES, LTD., priority 2013, published 2014).

System: GA-primed murine splenocytes
Experiment: Tolerance method for assessing process variability

glatiramer acetate [GA]
AVG expression IRGB10 (probe ILMN_2534151): 9.691 | AVG expression LOC624610 (probe ILMN_2537948): 8.96 | AVG expression LOC666559 (probe ILMN_2540103): 10.7199 | AVG expression AUH (probe ILMN_2543417): 8.451 | AVG expression HIPK2 (probe ILMN_2545445): 7.332 | AVG expression GNG12 (probe ILMN_2546272): 9.731 | AVG expression 4930426D05RIK (probe ILMN_2548681): 7.1 | AVG expression A130093I21RIK (probe ILMN_2553041): 7.932 | AVG expression A630006E02RIK (probe ILMN_2560567): 9.937 | AVG expression NDR3 (probe ILMN_2571414): 6.289 | AVG expression GAD1 (probe ILMN_2573826): 6.891 | AVG expression B930094H08R1K (probe ILMN_2578341): 6.497 | AVG expression D530007E13RIK (probe ILMN_2581681): 8.386 | AVG expression IL8RA (probe ILMN_2588216): 6.682 | AVG expression PLTP (probe ILMN_2589401): 7.226 | AVG expression IL27RA (probe ILMN_2591156): 8.583 | AVG expression BC021614 (probe ILMN_2591342): 7.519 | AVG expression QPRT (probe ILMN_2591754): 7.245 | AVG expression genericLYRP1 (probe ILMN_2592486): 7.785 | AVG expression SCG5 (probe ILMN_2592953): 6.961 | AVG expression DOCK10 (probe ILMN_2593143): 11.3 | AVG expression IGTP (probe ILMN_2593554): 12.78 | AVG expression KCNK13 (probe ILMN_2593787): 6.48 | AVG expression NSDHL (probe ILMN_2594521): 8.078 | AVG expression NSDHL (probe ILMN_2594525): 8.365 | AVG expression LOC100046232 (probe ILMN_2595732): 11.55 | AVG expression RGS1 (probe ILMN_2596596): 8.683 | AVG expression SLC44A2 (probe ILMN_2599719): 11.36 | AVG expression MPO (probe ILMN_2600421): 7.594 | AVG expression OVGP1 (probe ILMN_2600928): 6.54 | AVG expression A130092J06RIK (probe ILMN_2601453): 10.81 | AVG expression CREM (probe ILMN_2602899): 7.714 | AVG expression KLF2 (probe ILMN_2604029): 11.34 | AVG expression RANBP10 (probe ILMN_2605453): 9.654 | AVG expression AI646023 (probe ILMN_2605858): 6.049 | AVG expression AGFG1 (probe ILMN_2606072): 9.007 | AVG expression PDLIM4 (probe ILMN_2606162): 9.727 | AVG expression ACOT7 (probe ILMN_2606180): 9.205 | AVG expression CMAH (probe ILMN_2606825): 7.634 | AVG expression CHI3L1 (probe ILMN_2609813): 9.339 | AVG expression IFT172 (probe ILMN_2611450): 8.856 | AVG expression SLC25A19 (probe ILMN_2611532): 9.008 | AVG expression SERPINB6B (probe ILMN_2611755): 8.188 | AVG expression ARHGEF18 (probe ILMN_2612125): 10.09 | AVG expression LSS (probe ILMN_2614161): 9.397 | AVG expression B3GNT8 (probe ILMN_2614889): 8.954 | AVG expression DPP4 (probe ILMN_2615096): 9.69 | AVG expression CHAC1 (probe ILMN_2617468): 8.051 | AVG expression C330008K14RIK (probe ILMN_2618148): 10.14 | AVG expression SLC2A6 (probe ILMN_2618918): 10.76 | AVG expression LGALS1 (probe ILMN_2619107): 10.71 | AVG expression ERAF (probe ILMN_2619200): 8.714 | AVG expression PRNP (probe ILMN_2619316): 9.719 | AVG expression ATF3 (probe ILMN_2619408): 6.791 | AVG expression RGS1 (probe ILMN_2625377): 9.769 | AVG expression ACSS1 (probe ILMN_2628174): 10.26 | AVG expression SOCS2 (probe ILMN_2628178): 9.548 | AVG expression ASAH3L (probe ILMN_2629112): 6.995 | AVG expression CPM (probe ILMN_2629191): 9.17 | AVG expression PPAP2B (probe ILMN_2630993): 7.507 | AVG expression TMEM71 (probe ILMN_2631610): 6.536 | AVG expression CTLA4 (probe ILMN_2631752): 8.62 | AVG expression ACOT7 (probe ILMN_2632264): 11.36 | AVG expression SOCS1 (probe ILMN_2634796): 7.681 | AVG expression IGH-VJ558 (probe ILMN_2635272): 13.22 | AVG expression AXUD1 (probe ILMN_2636403): 10.85 | AVG expression PLA2G12A (probe ILMN_2636536): 9.884 | AVG expression SLAMF7 (probe ILMN_2638491): 8.628 | AVG expression HSPD1 (probe ILMN_2639036): 9.439 | AVG expression AK2 (probe ILMN_2641360): 10.39 | AVG expression GTF2I (probe ILMN_2642462): 11.52 | AVG expression EMP1 (probe ILMN_2642913): 7.96 | AVG expression ASNS (probe ILMN_2643513): 9.742 | AVG expression THY1 (probe ILMN_2644350): 11.24 | AVG expression MVD (probe ILMN_2645275): 9.423 | AVG expression SAMSN1 (probe ILMN_2646322): 11.87 | AVG expression JUN (probe ILMN_2646625): 8.291 | AVG expression CENTD1 (probe ILMN_2646891): 10.77 | AVG expression SIGLECG (probe ILMN_2648454): 9.552 | AVG expression GPNMB (probe ILMN_2648669): 7.401 | AVG expression MAN2A2 (probe ILMN_2650255): 6.819 | AVG expression ARHGAP9 (probe ILMN_2650739): 9.141 | AVG expression SLC12A7 (probe ILMN_2650953): 6.744 | AVG expression genericK1 (probe ILMN_2651886): 11.36 | AVG expression LRG1 (probe ILMN_2652500): 6.12 | AVG expression IFI47 (probe ILMN_2652857): 11.72 | AVG expression SESN1 (probe ILMN_2654074): 10.45 | AVG expression MYO6 (probe ILMN_2656854): 8.468 | AVG expression IFITM3 (probe ILMN_2658501): 11.43 | AVG expression TG (probe ILMN_2658878): 7.479 | AVG expression DGKA (probe ILMN_2658961): 11.07 | AVG expression IL7R (probe ILMN_2659739): 6.443 | AVG expression ACOT7 (probe ILMN_2660182): 8.55 | AVG expression ST6GALNAC4 (probe ILMN_2660837): 8.481 | AVG expression SCML4 (probe ILMN_2661185): 8.584 | AVG expression RAB35 (probe ILMN_2662097): 11.43 | AVG expression LMNA (probe ILMN_2662387): 8.27 | AVG expression SLAMF9 (probe ILMN_2663249): 8.243 | AVG expression EPHX1 (probe ILMN_2664224): 9.837 | AVG expression 3110013H01RIK (probe ILMN_2664726): 8.045 | AVG expression RIN3 (probe ILMN_2665545): 9.015 | AVG expression HEMK1 (probe ILMN_2666272): 9.174 | AVG expression PRG4 (probe ILMN_2668333): 5.989 | AVG expression HP (probe ILMN_2668509): 7.287 | AVG expression HP (probe ILMN_2668510): 7.507 | AVG expression CTSA (probe ILMN_2669714): 9.205 | AVG expression KIF1B (probe ILMN_2670778): 8.422 | AVG expression PFKP (probe ILMN_2673233): 8.097 | AVG expression 2310047A01RIK (probe ILMN_2675922): 7.606 | AVG expression GRIFIN (probe ILMN_2676543): 6.233 | AVG expression RNF144A (probe ILMN_2678127): 7.59 | AVG expression MNS1 (probe ILMN_2678431): 8.22 | AVG expression DUSP10 (probe ILMN_2678724): 8.26 | AVG expression RASGRP2 (probe ILMN_2678726): 6.734 | AVG expression IL7R (probe ILMN_2680827): 8.445 | AVG expression BCL2 (probe ILMN_2682162): 8.675 | AVG expression NALP6 (probe ILMN_2684600): 6.205 | AVG expression HMHA1 (probe ILMN_2685023): 11.42 | AVG expression CCR5 (probe ILMN_2685392): 7.052 | AVG expression CCR5 (probe ILMN_2685393): 7.202 | AVG expression IFNG (probe ILMN_2685712): 11.16 | AVG expression PRM1 (probe ILMN_2687652): 6.849 | AVG expression MCOLN2 (probe ILMN_2689401): 7.5921 | AVG expression PKIB (probe ILMN_2690241): 7.745 | AVG expression JAKMIP1 (probe ILMN_2690460): 9.597 | AVG expression KLHL14 (probe ILMN_2691014): 6.305 | AVG expression 9330186A19RIK (probe ILMN_2692554): 6.749 | AVG expression TGM2 (probe ILMN_2692615): 8.055 | AVG expression ERO1LB (probe ILMN_2692960): 10.32 | AVG expression CCDC125 (probe ILMN_2693679): 7.065 | AVG expression PNPLA7 (probe ILMN_2695047): 7.637 | AVG expression KIFC2 (probe ILMN_2695158): 6.733 | AVG expression PHF11 (probe ILMN_2696491): 9.238 | AVG expression PHF11 (probe ILMN_2696492): 9.454 | AVG expression MSCP (probe ILMN_2696609): 8.264 | AVG expression SLC25A37 (probe ILMN_2696610): 8.278 | AVG expression CD3D (probe ILMN_2697415): 11.45 | AVG expression HIST1H3H (probe ILMN_2698519): 8.014 | AVG expression RGS10 (probe ILMN_2699531): 9.937 | AVG expression ITGAE (probe ILMN_2699898): 7.502 | AVG expression CCND2 (probe ILMN_2700168): 10.82 | AVG expression DENND5B (probe ILMN_2700354): 7.911 | AVG expression IBRDC3 (probe ILMN_2700689): 9.29 | AVG expression LGALS7 (probe ILMN_2703182): 6.931 | AVG expression STAC2 (probe ILMN_2703563): 6.876 | AVG expression FCRLA (probe ILMN_2703829): 11.55 | AVG expression LIMD2 (probe ILMN_2705878): 8.037 | AVG expression SYNGR2 (probe ILMN_2706231): 11.42 | AVG expression SYNGR2 (probe ILMN_2706232): 11.09 | AVG expression LOC100046608 (probe ILMN_2706514): 8.612 | AVG expression GPR83 (probe ILMN_2707941): 9.205 | AVG expression 5100A8 (probe ILMN_2710905): 12.62 | AVG expression IRGM1 (probe ILMN_2711172): 7.157 | AVG expression LOC100047619 (probe ILMN_2711948): 10.95 | AVG expression TIMP2 (probe ILMN_2712867): 6.749 | AVG expression CHI3L3 (probe ILMN_2712986): 7.589 | AVG expression SDC3 (probe ILMN_2715042): 9.146 | AVG expression SLC12A6 (probe ILMN_2716511): 9.952 | AVG expression MAPK11 (probe ILMN_2716622): 8.853 | AVG expression RGL1 (probe ILMN_2717176): 7.561 | AVG expression TCF7 (probe ILMN_2717975): 8.216 | AVG expression CISH (probe ILMN_2718330): 11.35 | AVG expression SLAMF1 (probe ILMN_2721571): 9.069 | AVG expression CD3G (probe ILMN_2722784): 10.75 | AVG expression CCR8 (probe ILMN_2724465): 6.962 | AVG expression MAPK12 (probe ILMN_2724570): 6.86 | AVG expression IL2 (probe ILMN_2725259): 7.49 | AVG expression NSDHL (probe ILMN_2725402): 8.035 | AVG expression CD9 (probe ILMN_2725414): 8.904 | AVG expression SYTL3 (probe ILMN_2725448): 7.03 | AVG expression SERPINA3G (probe ILMN_2725927): 13.9 | AVG expression EN2 (probe ILMN_2726471): 6.583 | AVG expression B4GALNT1 (probe ILMN_2728270): 10.26 | AVG expression 5830431A10R1K (probe ILMN_2729252): 7.881 | AVG expression HIST1H3D (probe ILMN_2729958): 9.844
